From US6225494A, “Trisubstituted phenyl derivatives having retinoid agonist or inverse agonist type biological activity” (Allergan Sales, Inc., priority 1999, dated 2001)

What was measured:
Assay in all cases: RAR-P-GR holoreceptor transactivation assay (PGR assay)
Format in all cases: cell-based
[1] = biological target: T1, RARα (Homo sapiens, UniProt P10276, E106G/G107S/G110V); settings: for EC50: CV-1 cells, luciferase reporter, 18 hours; for Emax: relative to all-trans-retinoic acid, read-out: % Efficiency RARα
T1 construct: expressed in transfected cells; host or cells: CV-1
T1 sequence (P10276 1-462 E106G/G107S/G110V): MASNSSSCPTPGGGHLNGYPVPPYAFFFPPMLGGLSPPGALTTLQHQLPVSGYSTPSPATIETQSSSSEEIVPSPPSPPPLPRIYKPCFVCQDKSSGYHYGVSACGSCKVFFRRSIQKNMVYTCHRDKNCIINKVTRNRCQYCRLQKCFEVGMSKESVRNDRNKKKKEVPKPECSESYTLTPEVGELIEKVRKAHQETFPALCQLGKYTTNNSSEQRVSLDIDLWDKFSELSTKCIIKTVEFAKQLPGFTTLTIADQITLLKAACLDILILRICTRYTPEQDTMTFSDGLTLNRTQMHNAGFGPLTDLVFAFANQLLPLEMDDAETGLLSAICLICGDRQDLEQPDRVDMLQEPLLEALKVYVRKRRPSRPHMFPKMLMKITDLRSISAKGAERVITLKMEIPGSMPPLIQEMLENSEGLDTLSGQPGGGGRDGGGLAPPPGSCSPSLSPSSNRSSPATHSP
T1 sequence (P19793 1-462 partner): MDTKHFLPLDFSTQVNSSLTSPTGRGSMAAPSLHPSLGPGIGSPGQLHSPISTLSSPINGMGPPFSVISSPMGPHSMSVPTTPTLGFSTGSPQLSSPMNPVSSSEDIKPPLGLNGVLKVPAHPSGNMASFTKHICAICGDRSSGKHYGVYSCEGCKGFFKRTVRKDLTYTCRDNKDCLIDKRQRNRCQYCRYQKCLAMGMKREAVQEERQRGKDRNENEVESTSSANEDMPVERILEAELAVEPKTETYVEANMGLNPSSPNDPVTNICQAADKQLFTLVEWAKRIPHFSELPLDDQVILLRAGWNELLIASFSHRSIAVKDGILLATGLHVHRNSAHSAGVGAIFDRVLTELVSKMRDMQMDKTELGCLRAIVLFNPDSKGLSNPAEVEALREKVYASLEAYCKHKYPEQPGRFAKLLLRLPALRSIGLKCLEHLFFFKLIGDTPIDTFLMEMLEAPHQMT
Experimental: (§1) Still another transactivation assay, the "PGR assay" is described in the publication KIein et al. J. Biol. Chem. 271, 22692-22696 (1996) which is expressly incorporated herein by reference, and a detailed description is also provided below. The results of the PGR assay are also expressed in EC50 numbers (nanomolar concentration).
(§2) RAR-P-GR Holoreceptor Transactivation Assay
(§3) CV-1 cells (4×10^5 cells/well) were transiently transfected with the luciferase reporter plasmid MTV-4(R5G)-Luc (0.7 μg/well) containing four copies of the R5G retinoid DNA response element along with the RXRα expression plasmid pRS-hRXRα (0.1 μg/well) and one of the RAR-P-GR expression plasmids (0.05 μg/well) in 12 well plates via calcium phosphate precipitation Chen et al. (1987) Mol. Cell. Biol. 7, 2745-2752, as described by Vein et al. in J. Biol. Chem. 271, 22692, referenced above. The three different RAR-P-GR expression plasmids, pRS-RARα-P-GR, pcDNA3-RARβ-P-GR and pcDNA3-RARγ-P-GR, express RARα, RARβ and RARγ receptors, respectively, which contain modified DNA binding domains such that their "P-boxes" have been altered to that of the glucocorticoid receptor. These RAR-P-GR receptors bind to DNA as heterodimeric complexes with RXR. Specifically, the RAR-P-GR receptors bind retinoic acid response elements designated R5G, comprised of two RAR half sites (nucleotide sequence 5'-GGTTCA-3') separated by 5 base pairs in which the 3'-half site has been modified to that of a glucocorticoid receptor half site, 5'-AGAACA-3'. To allow for various in transfection efficiency a β-galactosidase expression plasmid (0.01 ug/well) was used as an internal control. Alternatively, the assay was performed in a 96-well microtiter plate format (5000 cells/well) in a manner which was identical to that described above except 1/5 of the amount of the DNA-calcium phosphate precipitant (20 μl instead of 100 μl) was applied to each well. Eighteen hours after introduction of the DNA precipitants, cells were rinsed with phosphate buffered saline (PBS) and fed with D-MEM (Gibco-BRL) containing 10% activated charcoal extracted fetal bovine serum (Gemini Bio-Products). After rinsing with PBS, cells were lysed and luciferase activity was measured as previously described in de Wet et al. (1987) Mol. Cell. Biol. 7, 725-737. Luciferase values represent the mean±SEM of triplicate determinations normalized to β-galactosidase activity.

[2] = biological target: T2, RARβ (Homo sapiens, UniProt P10826, E106G/G107S/G110V); settings: for EC50: CV-1 cells, luciferase reporter, 18 hours; for Emax: relative to all-trans-retinoic acid, read-out: % Efficiency RARβ
T2 construct: expressed in transfected cells; host or cells: CV-1
T2 sequence (P10826 1-448 isoform P10826-2 E99G/G100S/G103V): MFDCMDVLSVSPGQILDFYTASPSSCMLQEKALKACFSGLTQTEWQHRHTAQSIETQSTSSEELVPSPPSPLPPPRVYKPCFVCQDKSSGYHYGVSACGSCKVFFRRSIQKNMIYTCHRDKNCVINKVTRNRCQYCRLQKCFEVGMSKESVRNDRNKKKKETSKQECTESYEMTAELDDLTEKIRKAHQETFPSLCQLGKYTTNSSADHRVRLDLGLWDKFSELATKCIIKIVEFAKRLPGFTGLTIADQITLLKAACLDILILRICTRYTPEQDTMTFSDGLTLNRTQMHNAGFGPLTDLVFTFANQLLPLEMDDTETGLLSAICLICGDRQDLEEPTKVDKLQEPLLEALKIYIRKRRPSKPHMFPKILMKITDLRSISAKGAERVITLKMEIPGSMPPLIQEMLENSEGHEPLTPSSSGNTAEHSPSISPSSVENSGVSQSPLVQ
T2 sequence (P19793 1-462 partner): T1 sequence (P19793 1-462 partner)
Experimental: as §1, §2, §3

[3] = biological target: T3, RARγ (Homo sapiens, UniProt P13631, E108G/G109S/G112V); settings: for EC50: CV-1 cells, luciferase reporter, 18 hours; for Emax: relative to all-trans-retinoic acid, read-out: % Efficiency RARγ
T3 construct: expressed in transfected cells; host or cells: CV-1
T3 sequence (P13631 1-454 E108G/G109S/G112V): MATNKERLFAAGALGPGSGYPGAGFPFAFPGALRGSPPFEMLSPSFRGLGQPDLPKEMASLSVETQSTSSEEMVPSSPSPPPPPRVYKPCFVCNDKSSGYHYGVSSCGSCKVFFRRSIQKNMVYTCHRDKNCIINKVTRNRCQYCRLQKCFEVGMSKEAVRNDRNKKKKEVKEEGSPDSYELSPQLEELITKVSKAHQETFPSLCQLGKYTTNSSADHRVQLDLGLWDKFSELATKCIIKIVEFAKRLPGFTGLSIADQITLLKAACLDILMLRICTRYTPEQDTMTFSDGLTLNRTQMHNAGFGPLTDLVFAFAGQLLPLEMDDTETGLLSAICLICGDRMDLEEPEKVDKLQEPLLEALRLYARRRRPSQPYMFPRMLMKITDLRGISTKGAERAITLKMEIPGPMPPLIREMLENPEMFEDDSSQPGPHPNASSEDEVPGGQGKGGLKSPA
T3 sequence (P19793 1-462 partner): T1 sequence (P19793 1-462 partner)
Experimental: as §1, §2, §3

Row | SMILES | EC50 [1] | Emax [1] | EC50 [2] | Emax [2] | EC50 [3] | Emax [3]
1 | COc1ccc(C#Cc2ccc(C(=O)O)cc2)cc1C(=O)c1ccc(C)cc1 [Compound 22, 4-[[4'-methoxy-3'-(4"-methyl)benzoyl]phenylethynyl]benzoic acid] | > 10 µM | 0% | > 10 µM | 0% | > 10 µM | 0%
2 | Cc1ccc(C(=O)c2cc(C#Cc3ccc(C(=O)O)c(F)c3)c(C)cc2O)cc1 [Compound 25, 4-[[4'-Hydroxy-2'-methyl-5'-(4"-methyl)benzoyl]phenylethynyl]-2-fluoro-benzoic acid] | > 10 µM | 0% | > 10 µM | 2% | > 10 µM | 0%
3 | C=C(c1ccc(C)cc1)c1cc(C#Cc2ccc(C(=O)O)cc2)ccc1OC(C)C [Compound 28, 4-[[4'-Isopropoxy-3'-(1-p-tolyl)vinyl]phenylethynyl]benzoic acid] | > 10 µM | 0% | > 10 µM | 0% | > 10 µM | 1%
4 | C=C(c1ccc(C)cc1)c1cc(C#Cc2ccc(C(=O)O)c(F)c2)ccc1OC(C)C [Compound 29, 4-[[4'-Isopropoxy-3'-(1-p-tolyl)vinyl]phenylethynyl]-2-fluoro-benzoic acid] | > 10 µM | 0% | > 10 µM | 0% | > 10 µM | 1%
5 | C=C(c1cccc(C)c1)c1cc(C#Cc2ccc(C(=O)O)cc2)ccc1OC(C)C [Compound 31, 4-[[4'-Isopropoxy-3'-(1-m-tolyl)vinyl]phenylethynyl]benzoic acid] | > 10 µM | 0% | > 10 µM | 4% | > 10 µM | 2%

Further lines, results first:

Row | EC50 [1] | Emax [1] | EC50 [2] | Emax [2] | EC50 [3] | Emax [3] | SMILES
6 | > 10 µM | 1% | > 10 µM | 3% | > 10 µM | 1% | Cc1ccc(C(=O)c2cc(C#Cc3ccc(C(=O)O)cc3)ccc2O)cc1 [Compound 5, 4-[[4'-hydroxy-3'-(4"-methyl)benzoyl]phenylethynyl]benzoic acid]
7 | > 10 µM | 1% | > 10 µM | 3% | > 10 µM | 3% | C=C(c1ccc(C)cc1)c1cc(C#Cc2ccc(C(=O)O)cc2)ccc1O [Compound 8, 4-[[4'-Hydroxy-3'-(1-p-tolyl)vinyl]phenylethynyl]benzoic acid]
8 | > 10 µM | 1% | > 10 µM | 3% | > 10 µM | 5% | C=C(c1ccc(C)cc1)c1cc(C#Cc2ccc(C(=O)O)cc2)ccc1OCOC [Compound 9, 4-[[4'-methoxymethoxy-3'-(1-p-tolyl)vinyl]phenylethynyl]benzoic acid]
9 | > 10 µM | 0% | > 10 µM | 1% | > 10 µM | 5% | C=C(c1ccc(C)cc1)c1cc(C#Cc2ccc(C(=O)O)cc2)ccc1OC [Compound 12, 4-[[4'-Methoxy-3'-(1-p-tolyl)vinyl]phenylethynyl]benzoic acid]
10 | > 10 µM | 0% | > 10 µM | 0% | > 10 µM | 0% | COCOc1ccc(C#Cc2ccc(C(=O)O)cc2)cc1C(=O)c1ccc(C)cc1 [Compound 13]
11 | > 10 µM | 9% | > 10 µM | 5% | > 10 µM | 1% | C=C(c1ccc(C)cc1)c1cccc(C#Cc2ccc(C(=O)O)cc2)c1 [Compound 20, 4-[[3'-(1-p-Tolyl)vinyl]phenylethynyl]benzoic acid]
